# Test results reported in the supplement of paper PMC10307832.
# Compound: Cc1nc(NC(=O)N2CCC[C@H]2C(N)=O)sc1-c1ccnc(C(C)(C)C(F)(F)F)c1 [Alpelisib]
# Experiment: relative viability (nuclei count vs DMSO), 5 days (fraction); higher = more cells survive
# Method in brief: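 On vehicle-anchored 1536-well plates, lung cancer cell lines held overnight at 37 °C were pinned with five library-drug doses (not always all listed) spaced by √10. With no medium change over 5 days, they were then fixed, permeabilised and Hoechst-stained in one step and imaged at 4×. MetaXpress counted nuclei, and viability is the median across plates of treated-well over vehicle-well nuclei. Acceptance needed control CV below 25% and at least one doubling.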
Cell Line,relative viability (0.04 µM),relative viability (0.1265 µM),relative viability (0.4 µM),relative viability (1.265 µM),"relative viability (2 µM, anchor plate)",relative viability (4 µM)
201T,0.985,0.974,0.994,0.873,1.01,0.816
A549,0.905,0.877,0.953,0.774,0.84,0.538
A-427,0.98,0.886,0.965,0.871,1.09,0.911
ABC-1,1.13,0.77,0.886,0.662,1.05,0.608
BEN,0.99,0.913,1.15,1.01,1.04,0.847
CAL-12T,0.999,0.989,1.09,0.963,1.14,0.955
COR-L23,0.959,1.09,1.08,0.837,0.739,0.786
COR-L 105,0.931,1,1.21,0.876,1.03,0.853
Calu-6,0.981,0.976,1.1,0.941,0.98,0.922
ChaGo-K-1,0.973,0.875,1.02,0.871,,0.75
EBC-1,0.942,0.904,1.15,0.853,0.866,0.862
EKVX,0.927,0.921,1.12,0.821,0.893,0.614
EMC-BAC-2,0.95,0.821,0.981,0.672,0.751,0.604
EPLC-272H,0.898,0.864,0.984,0.778,0.92,0.61
H3255,1.03,0.936,1.09,0.755,0.698,0.743
HARA,0.921,1.17,0.995,0.817,0.805,0.504
HCC-15,1.02,0.938,1.07,0.886,0.852,0.759
HCC-44,0.98,0.914,1.02,0.846,0.811,0.861
HCC-78,0.93,0.798,0.897,0.664,0.378,0.655
HCC-366,0.935,1,1.09,0.947,0.443,0.627

Cell Line,relative viability (0.04 µM),relative viability (0.1265 µM),relative viability (0.4 µM),relative viability (1.265 µM),"relative viability (2 µM, anchor plate)",relative viability (4 µM)
HCC-827,1.02,0.935,1.05,0.981,0.945,1
HOP-62,1.04,1.06,1.1,0.863,0.974,0.955
IA-LM,0.979,0.854,1.02,0.753,0.799,0.717
LC-2-ad,0.966,0.905,1.09,0.685,0.868,0.672
LCLC-97TM1,0.873,0.845,1.01,0.796,0.257,0.521
LCLC-103H,0.972,0.956,0.959,0.779,0.969,0.749
LK-2,0.885,0.868,0.685,0.563,1.1,0.599
LOU-NH91,0.961,0.806,0.859,0.753,0.732,0.604
LU99A,0.899,0.96,1.04,0.773,0.511,0.696
LXF-289,0.988,1.11,1.05,1,1.06,0.961
NCI-H23,0.94,0.798,0.913,0.739,0.78,0.706
NCI-H322M,0.879,0.961,0.918,0.698,0.786,0.682
NCI-H358,0.873,0.889,0.95,0.586,0.88,0.493
NCI-H441,1.1,0.95,1.01,0.605,0.766,0.662
NCI-H460,0.989,1.02,1.05,0.949,0.536,0.757
NCI-H520,0.891,0.935,1.11,0.725,0.945,0.503
NCI-H522,0.939,0.903,0.923,0.807,,0.736
NCI-H596,0.94,1.01,0.968,0.52,0.478,0.567
NCI-H647,0.917,0.925,1.06,0.757,1.18,0.832
NCI-H650,0.877,0.825,0.96,0.752,1.14,0.738
